Reference: paper PMC4929566, “The metabolome of [2-^14C](−)-epicatechin in humans: implications for the assessment of efficacy, safety, and mechanisms of action of polyphenolic bioactives” (Scientific Reports, 2016)

How the values were obtained:
[1] = Adverse events and clinical/laboratory evaluation in the 14C-EC ADME study; format: in vivo, humans; details: human
Method: The study was a single-center, open-label, and non-randomized study with two distinct elements: a run-in phase to establish a more defined dietary background of dietary flavanols and procyanidins and the subsequent ^14C-EC ADME study (Fig. 1B). Participants (n = 12) were enrolled in the run-in phase (day –17 to day –4) and asked to supplement their daily diet for 14 days with a commercially available flavanol-containing cocoa-based drink (250 mg cocoa flavanols; 40 mg of EC). This was followed by a 4-day period (day –4 to 0) of a low-flavanol diet. One day (study day -1) prior to the initialization of the ^14C-EC ADME study, all eligible participants were accommodated under controlled conditions at a metabolic research facility (Covance Clinical Pharmacology Inc., Wisconsin) until completion of the study. Based on the compliance of the first part of the study, 8 participants were selected to participate in the ^14C-EC ADME study. During the ^14C-EC ADME study (Fig. 1B.), volunteers received a low-flavanol, standardized high-fiber diet, and were encouraged to maintain an adequate level of hydration (water ad libitum). Volunteers were asked to fast for 8 h before the initiation of the study and for at least 4 h after the intake of the ^14C-EC test drink (water ad libitum). Venous blood samples were taken using Vacutainer collection tubes, containing potassium EDTA at 0 h (just prior to ^14C-EC ingestion), and at 0.25, 0.5, 1, 1.5, 2, 2.5, 3, 4, 6, 8, 10, 12, 16, 24, 36, and 48 h after test drink consumption. Plasma was obtained by whole blood centrifugation at 2000 × g for 15 min at 5 °C, separated into aliquots and stored at −80 °C until analysis. All urine and feces from the time just prior to the consumption of the test drink were collected at different time intervals for radioactivity and metabolite profiling. Clinical parameters and laboratory evaluations of participants were assessed at screening, on study day –1, and after completing the study, as detailed in Supplementary Methods. […]

[2] = Elimination and mass balance of radioactivity in urine and feces; format: in vivo, humans; details: human
Method: The study was a single-center, open-label, and non-randomized study with two distinct elements: a run-in phase to establish a more defined dietary background of dietary flavanols and procyanidins and the subsequent ^14C-EC ADME study (Fig. 1B). Participants (n = 12) were enrolled in the run-in phase (day –17 to day –4) and asked to supplement their daily diet for 14 days with a commercially available flavanol-containing cocoa-based drink (250 mg cocoa flavanols; 40 mg of EC). This was followed by a 4-day period (day –4 to 0) of a low-flavanol diet. One day (study day -1) prior to the initialization of the ^14C-EC ADME study, all eligible participants were accommodated under controlled conditions at a metabolic research facility (Covance Clinical Pharmacology Inc., Wisconsin) until completion of the study. Based on the compliance of the first part of the study, 8 participants were selected to participate in the ^14C-EC ADME study. During the ^14C-EC ADME study (Fig. 1B.), volunteers received a low-flavanol, standardized high-fiber diet, and were encouraged to maintain an adequate level of hydration (water ad libitum). Volunteers were asked to fast for 8 h before the initiation of the study and for at least 4 h after the intake of the ^14C-EC test drink (water ad libitum). Venous blood samples were taken using Vacutainer collection tubes, containing potassium EDTA at 0 h (just prior to ^14C-EC ingestion), and at 0.25, 0.5, 1, 1.5, 2, 2.5, 3, 4, 6, 8, 10, 12, 16, 24, 36, and 48 h after test drink consumption. Plasma was obtained by whole blood centrifugation at 2000 × g for 15 min at 5 °C, separated into aliquots and stored at −80 °C until analysis. All urine and feces from the time just prior to the consumption of the test drink were collected at different time intervals for radioactivity and metabolite profiling. Clinical parameters and laboratory evaluations of participants were assessed at screening, on study day –1, and after completing the study, as detailed in Supplementary Methods.
The 50-mL drink consisted of an aqueous solution of ^14C-EC (specific activity 14.5 μCi μmol^−1) and delivered 60 mg (207 μmol) of EC and 300 μCi (660 × 10^6 dpm) of radioactivity. The drink was prepared one day before consumption to verify correctness of composition and stability. Volunteers received the ^14C-EC test drink (50 mL), followed by 3 × 50 mL of water that was used to rinse the test drink container, and 40 mL of water. The radioactivity remaining in the test drink containers was measured, and the residual radioactivity recovered from each container was subtracted from the amount administered to the corresponding volunteer.
Radioactivity in aliquots of plasma and urine was measured by liquid scintillation counting. Blood and feces were dried and oxidized by combustion using a 307 Sample Oxidizer (Packard Instrument Company, Meriden, NH) before being analyzed by liquid scintillation counting.

SMILES: Oc1cc(O)c2c(c1)O[C@H](c1ccc(O)c(O)c1)[C@H](O)C2 [^14C-EC, [2-^14C](−)-epicatechin]
- Severity of reported adverse events [1]: all reported adverse events were mild in severity
- Number of adverse events reported ([1]; reported by 3 different participants, none related to study treatment): 6
- Adverse events related to the study treatment ([1]; single oral 60 mg, 300 μCi): No adverse events related to the study treatment were recorded
- Clinical changes in laboratory evaluations, physical examinations and 12-lead electrocardiograms ([1]; single oral 60 mg, 300 μCi): no significant clinical changes
- Accumulated radioactivity voided in feces, of ingested 14C-EC ([2]; oral 60 mg 14C-EC): 12 ± 3%
- Radioactivity in urine and feces combined, of intake ([2]; oral 60 mg 14C-EC): 95 ± 1%
- Radioactivity not recovered in the collected samples ([2]; oral 60 mg 14C-EC): 5 ± 1%
- Accumulated radioactivity eliminated in urine, of amount ingested ([2]; oral 60 mg 14C-EC, liquid scintillation counting, 0–48 h): 82 ± 5%
- Ingested EC absorbed ([2]; oral 60 mg, n=8): 82 ± 5%
